Results taken from publication PMC10052652 (Molecules, 2023).
Read-outs that look alike come from different tables or passages of the source.

Assays:
[1] = target: T1, superoxide dismutase (SOD) (Homo sapiens, UniProt P00441); experiment: biochemical; conditions: read-out: Anti SOD IC50
Protocol: Pyrogallol auto-oxidation due to oxygen in the air can be inhibited by an enzyme that is naturally present in the body: superoxide dismutase (SOD). Furthermore, variations in the pyrogallol auto-oxidation rate in the presence of SOD were evaluated. Tests were carried out in triplicate. The objective was to find an inhibitor of the auto-oxidation of pyrogallol in the presence of a SOD enzyme solution. Samples were tested at a concentration of 50 µg/mL, followed by incubation for 4 min at 25 °C. […] The self-oxidation of pyrogallol was evaluated in the absence of the enzyme. For this, 30 µL of pyrogallol was added to 120 µL of tris buffer (in place of the SOD) (pH 8.5), then followed by the same steps of incubating a positive control (without the molecule); this was performed in the presence of 5% of DMSO to evaluate the percentage of SOD inhibition activity on the auto-oxidation of pyrogallol.

[2] = tested on: OVCAR-3 cells; experiment: Cytotoxic activity, MTT assay, OVCAR-3; format: cell-based; conditions: Homo sapiens, OVCAR-3, 72 h, read-out: IC50 OVCAR-3
Protocol: (§1) The cancer cell lines used in this study were HCT116 (colorectal carcinoma), IGROV1 (ovarian cancer), OVCAR3 (ovarian cancer), and MCF7 (mammary gland/breast cancer). […] Cell lines were maintained in culture and were incubated at 37 °C in an incubator with 5% CO2 in a humidified atmosphere. All tests were established at 80% of confluence, and viability was estimated with a trypan blue exclusion assay.
(§2) The cytotoxic activities of molecules against cancer cell lines were evaluated using an MTT assay. The MTT colorimetric assay was performed using 96-well plates. Cells were seeded in a 96-well plate, at a concentration of 10 × 10^3 cells/well for HCT116 and 12 × 10^3 cells/well for MCF7, IGROV1, and OVAR. Adherent cells were dispatched and incubated at 37 °C overnight in a 5% CO2-enriched atmosphere. […] After that, the medium was removed, and cells were treated with 50 µL of 3-(4,5-dimethylthazolk-2-yl)-2,5-diphenyl tetrazolium bromide (MTT) solution (3 mg/mL in PBS) at 37 °C for 20 to 40 min. To dissolve the […], we added 80 µL of 100% DMSO. Optical density was measured at 540 nm. All tests were established in triplicate. […]

[3] = target: T1, superoxide dismutase (SOD); format: biochemical; conditions: at 100 µM
[4] = ABTS radical cation scavenging assay
Protocol: ABTS (2,2′-azinobis-3-ethylbenzothiazoline-6-sulfonate) assay
The radical scavenging capacity of antioxidants for the ABTS radical cation was evaluated following this method: ABTS was prepared by adding 7 mM solution of ABTS at pH 7.4 (5 mM NaH2PO4, 5 mM Na2HPO4, and 154 mM NaCl) with 2.5 mM potassium persulfate. The mixture was stored at room temperature for 16 h in the dark before use and prepared […]. Once diluted with persulfate buffer, the absorbance of the mixture yielded an absorbance value of 0.70 ± 0.05 units at 734 nm. Then, 20 µL of each tested sample was mixed with fresh ABTS solution (180 µL), then the absorbance was measured 6 min after the initial mixing. Ascorbic acid was used as a standard. The capacity of free radical scavenging was expressed as a percentage of the inhibition values. The percentage of inhibition is calculated using the same expression employed in the DPPH assay.

[5] = tested on: MCF7 cells; experiment: Cytotoxic activity, MTT assay, MCF7; format: cell-based, human; conditions: Homo sapiens, MCF7, 72 h
Protocol: Optical density was measured at 540 nm. All tests were established in triplicate.

[6] = target: T2, acetylcholinesterase (AChE) (Homo sapiens, UniProt P22303); format: biochemical; conditions: at 100 µM
T2 sequence (P22303 32-614, species assumed): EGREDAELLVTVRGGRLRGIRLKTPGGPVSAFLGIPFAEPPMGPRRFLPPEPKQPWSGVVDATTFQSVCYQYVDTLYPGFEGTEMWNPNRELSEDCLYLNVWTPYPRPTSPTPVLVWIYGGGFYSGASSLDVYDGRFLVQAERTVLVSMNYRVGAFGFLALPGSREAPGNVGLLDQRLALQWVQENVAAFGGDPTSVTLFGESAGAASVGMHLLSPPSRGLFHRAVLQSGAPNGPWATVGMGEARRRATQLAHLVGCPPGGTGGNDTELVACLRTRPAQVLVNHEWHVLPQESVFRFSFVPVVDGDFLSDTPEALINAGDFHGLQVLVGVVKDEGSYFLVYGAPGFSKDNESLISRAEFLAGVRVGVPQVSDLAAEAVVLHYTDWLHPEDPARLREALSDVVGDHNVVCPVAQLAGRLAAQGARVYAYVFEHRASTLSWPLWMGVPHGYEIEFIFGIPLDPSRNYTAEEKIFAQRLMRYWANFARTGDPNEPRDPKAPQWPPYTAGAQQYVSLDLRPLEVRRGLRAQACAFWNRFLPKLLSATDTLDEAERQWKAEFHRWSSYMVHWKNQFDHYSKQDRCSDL

[7] = tested on: HCT116 cells; experiment: Cytotoxic activity, MTT assay, HCT116; format: cell-based, human; conditions: Homo sapiens, HCT-116, 72 h, read-out: IC50 HCT116, MTT, 72 h
Protocol: as §1, §2

[8] = target: T3, xanthine oxidase (XOD) (Homo sapiens, UniProt P47989); format: biochemical; conditions: at 100 µM
T3 sequence (P47989 whole entry, species assumed): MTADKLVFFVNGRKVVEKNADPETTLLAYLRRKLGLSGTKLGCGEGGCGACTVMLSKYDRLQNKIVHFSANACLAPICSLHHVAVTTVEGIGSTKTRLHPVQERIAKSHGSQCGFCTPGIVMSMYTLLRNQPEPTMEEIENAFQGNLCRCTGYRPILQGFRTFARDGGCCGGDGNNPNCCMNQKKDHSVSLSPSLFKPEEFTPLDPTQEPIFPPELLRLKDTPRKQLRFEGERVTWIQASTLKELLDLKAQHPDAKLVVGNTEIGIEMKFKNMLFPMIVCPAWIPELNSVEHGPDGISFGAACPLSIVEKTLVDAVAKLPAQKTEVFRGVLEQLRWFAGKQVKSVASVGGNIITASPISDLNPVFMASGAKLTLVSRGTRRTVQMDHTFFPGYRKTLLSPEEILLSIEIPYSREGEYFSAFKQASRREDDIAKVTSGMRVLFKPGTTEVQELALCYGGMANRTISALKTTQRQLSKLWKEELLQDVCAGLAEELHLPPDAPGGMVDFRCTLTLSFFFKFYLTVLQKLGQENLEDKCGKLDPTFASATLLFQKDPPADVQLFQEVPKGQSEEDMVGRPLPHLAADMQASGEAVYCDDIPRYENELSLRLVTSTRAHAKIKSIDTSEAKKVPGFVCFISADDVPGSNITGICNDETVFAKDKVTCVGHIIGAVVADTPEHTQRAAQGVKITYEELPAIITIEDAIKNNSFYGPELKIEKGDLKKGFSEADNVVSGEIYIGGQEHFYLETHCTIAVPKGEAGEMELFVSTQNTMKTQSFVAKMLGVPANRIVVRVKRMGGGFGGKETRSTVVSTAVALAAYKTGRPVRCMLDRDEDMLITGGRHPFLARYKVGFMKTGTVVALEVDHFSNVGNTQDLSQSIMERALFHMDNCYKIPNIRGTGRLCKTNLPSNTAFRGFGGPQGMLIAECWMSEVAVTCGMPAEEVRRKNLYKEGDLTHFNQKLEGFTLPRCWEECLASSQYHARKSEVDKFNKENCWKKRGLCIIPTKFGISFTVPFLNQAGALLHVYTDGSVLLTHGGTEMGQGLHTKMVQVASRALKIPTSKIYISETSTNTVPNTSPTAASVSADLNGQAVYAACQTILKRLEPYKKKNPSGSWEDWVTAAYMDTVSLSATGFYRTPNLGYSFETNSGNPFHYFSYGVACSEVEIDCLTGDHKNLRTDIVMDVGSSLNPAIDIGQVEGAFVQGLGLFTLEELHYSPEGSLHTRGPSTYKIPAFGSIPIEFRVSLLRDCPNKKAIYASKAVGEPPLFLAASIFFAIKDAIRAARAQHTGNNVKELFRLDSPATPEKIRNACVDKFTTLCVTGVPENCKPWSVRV

[9] = tested on: SKOV-3 cells; experiment: Cytotoxic activity, MTT assay, SKOV-3; format: cell-based, human; conditions: Homo sapiens, SK-OV-3, 72 h, read-out: IC50 SKOV-3, MTT, 72 h
[10] = DPPH radical scavenging assay
Protocol: DPPH• (1-1-diphenyl 2-picryl hydrazyl) assay
This method is based on the spectrophotometric assay using the stable radical, DPPH•, as a reagent. First, 20 µL of each sample (4 mg/mL) was mixed with 180 µL of 0.1 mM DPPH• in methanol, in plates, after an incubation of 25 min in the dark. Absorbance was measured at 517 nm. Ascorbic acid was used as the reference compound. The radical-scavenging activities of molecules, expressed as a percentage inhibition of DPPH•, were calculated according to the following formula: Inhibition (%) = [(A control − A sample)/A control] × 100 where A is the absorbance determined at 517 nm. The absorbance of the solvent and DPPH• radical without the molecule was measured as the control.

[11] = target: T2, acetylcholinesterase (AChE); experiment: biochemical
Protocol: The enzymatic activity was assessed via a modified colorimetric Ellman′s method. First, 50 µL of Tris-HCl buffer (pH 8), 25µL of a buffer solution of the sample (50 µg/mL), and 25 µL of an acetylcholinesterase (AChE) enzyme solution containing 2.8 U/mL were mixed. A reaction was then initiated via the addition of 125 µL of 3 mM […]. After incubation for 15 min at 25 °C, 25 µL of a solution of iodide acetylthiocholine15 mM was added to a 96-well microplate. […] Inhibition (%) was calculated in the following way: Inhibition (%) = [(A control − A sample)/A control] × 100, where (A sample) is the absorbance of the molecule containing the reaction and (A control) is the absorbance of the reaction control. Tests were carried out in triplicate.

[12] = target: T3, xanthine oxidase (XOD); experiment: biochemical; conditions: read-out: Anti XOD IC50
Protocol: Anti-xanthine oxidase activity was assayed spectrophotometrically under aerobic conditions. First, 50 µL (50 µg/mL) of samples were added to 60 µL of phosphate buffer (pH 7.5) and 30 µL of xanthine oxidase enzyme solution (0.01 units/mL in phosphate buffer; pH 7.5). After pre-incubation at 25 °C for 15 min, the reaction was initiated by the addition of 60 µL of xanthine substrate solution (prepared in the same buffer). The assay mixture was incubated at 25 °C for 5 min. […] The assay was performed in triplicate. […] Tests were carried out in triplicate.

[13] = target: T4, α-amylase (Homo sapiens, UniProt P04746); experiment: Anti-α-amylase activity (starch/DNS)
T4 sequence (P04746 16-511): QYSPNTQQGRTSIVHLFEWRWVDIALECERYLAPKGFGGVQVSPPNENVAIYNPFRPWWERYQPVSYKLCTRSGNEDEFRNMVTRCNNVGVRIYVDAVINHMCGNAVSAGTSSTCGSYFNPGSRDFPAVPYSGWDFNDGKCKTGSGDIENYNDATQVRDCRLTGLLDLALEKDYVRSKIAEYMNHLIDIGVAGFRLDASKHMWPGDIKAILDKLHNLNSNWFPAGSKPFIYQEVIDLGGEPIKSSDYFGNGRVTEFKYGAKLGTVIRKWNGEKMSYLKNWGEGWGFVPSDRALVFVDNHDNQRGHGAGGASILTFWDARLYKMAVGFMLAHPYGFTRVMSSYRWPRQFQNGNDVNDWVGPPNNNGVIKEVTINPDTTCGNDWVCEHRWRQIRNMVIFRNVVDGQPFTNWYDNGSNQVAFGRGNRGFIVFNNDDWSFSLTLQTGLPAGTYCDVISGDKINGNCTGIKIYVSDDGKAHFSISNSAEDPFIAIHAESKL
Protocol: The α-amylase inhibitory activity (%) value was defined as the percentage decrease in the maltose production rate over the control. […] After 15 min, this mixture was removed from the water bath and diluted with 900 µL of distilled water. The anti-α-amylase activity was determined by measuring the absorbance at 540 nm. Blank incubations were determined as the absorbance produced by samples where the enzyme was replaced with a buffer solution. […] The IC50 values were calculated from the mean values of the percentage of α--amylase inhibition data, determined in triplicate.

T1 sequence (P00441 whole entry): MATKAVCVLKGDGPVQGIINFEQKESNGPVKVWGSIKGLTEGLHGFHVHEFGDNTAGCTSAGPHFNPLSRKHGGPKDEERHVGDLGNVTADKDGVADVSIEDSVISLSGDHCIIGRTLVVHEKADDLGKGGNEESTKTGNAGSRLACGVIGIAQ

SMILES | IC50 [1] [µM] | IC50 [2] [µM] | Anti SOD % [3] [%] | IC50 [4] [µM] | IC50 [5] [µM] | Anti ACHE % [6] [%] | IC50 [7] [µM] | Anti XOD % [8] [%] | IC50 [9] [µM] | IC50 [10] [µM] | IC50 ([11]; read-out: Anti ACHE IC50) [µM] | IC50 [12] [µM] | IC50 [13] [µM] | ABTS Assay % ([4]; at 100 µM) [%] | IC50 [11] [µM]
Cc1ccc2oc(-c3cccc(O)c3)cc(=O)c2c1 [Molecule M16, 3′-hydroxy-6-methylflavone] | > 100 | > 50 | 27.3 ± 3.2 | > 50 | > 100 | 59.1 ± 1.5 | > 100 | 83.5 ± 3.8 | 42.1 ± 1.5 | > 100 | > 50 | 2 ± 0.1 | > 100 |  | 
CC1OC(Oc2c(-c3cc(O)c(O)c(O)c3)oc3cc(O)cc(O)c3c2=O)C(O)C(O)C1O (stereo not drawn) [Molecule M20, myricitrin dihydrate] | > 100 | > 50 | 42.4 ± 1.1 | > 100 | > 50 | 51.8 ± 3.5 | > 50 | 30.9 ± 2.5 | > 50 | > 100 |  | > 100 | > 100 | 20.3 ± 3.2 | > 50
